According to patent US12091425B2 (AMGEN INC., priority 2016, dated 2024):

What was measured:
[1] = biological target: T1, Mcl-1/Bim interaction, recombinant human Mcl-1 (171-327) (Homo sapiens, UniProt Q07820); assay: Cell free Mcl-1: Bim Affinity Assay (Mcl-1 HTRF); type: binding; conditions: cell free Mcl-1:Bim TR-FRET, recombinant human Mcl-1 (171-327)
T1 construct: made in house
Outline: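 TR-FRET competition assay with biotinylated human Bim peptide (residues 51-76); reaction plates incubated overnight before reading. IC50 values came from duplicate data fitted to a four-parameter sigmoidal competition curve.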

[2] = test system: OPM-2 human multiple myeloma cell line; assay: Cell Viability Assay (OPM-2 10 FBS); type: cell-based; conditions: OPM-2 cells, 16 h, CellTiter-Glo
Outline: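 ATP-based luminescence (CellTiter-Glo) measured after a 16 h compound treatment of OPM-2 cells seeded at 3000 cells/well in 10% FBS medium. IC50 values derived by 4-parameter logistic fitting of serial dilutions.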

T1 sequence (Q07820 171-327): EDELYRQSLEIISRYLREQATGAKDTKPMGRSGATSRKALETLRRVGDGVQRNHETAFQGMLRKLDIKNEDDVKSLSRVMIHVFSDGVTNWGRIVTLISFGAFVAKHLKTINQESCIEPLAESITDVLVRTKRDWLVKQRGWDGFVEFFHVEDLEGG

Row | Compound | IC50 [1] | IC50 ([2]; Homo sapiens, OPM-2, 16 h) | IC50 [2]
1 | COC(=O)CN[C@H]1/C=C/CC[C@@H](C)S(=O)(=O)NC(=O)c2ccc3c(c2)N(C[C@@H]2CC[C@H]21)C[C@@]1(CCCc2cc(Cl)ccc21)CO3 [Example 599, methyl N-((1S,3′R,6′R,7′S,8′E,12′R)-6-chloro-12′-methyl-13′,13′-dioxido-15′-oxo-3,4-dihydro-2H-spiro[naphthalene-1,22′-[20]oxa[13]thia[1,14]diazatetracyclo[14.7.2.0^3,6.0^19,24]pentacosa [8,16,18,24]tetraen]-7′-yl)glycinate-trifluoroacetic Acid] | 1.51 nM | 652 nM | 
2 | COC(=O)CN(CC(=O)OC)[C@H]1/C=C/CC[C@@H](C)S(=O)(=O)NC(=O)c2ccc3c(c2)N(C[C@@H]2CC[C@H]21)C[C@@]1(CCCc2cc(Cl)ccc21)CO3 [Example 600, dimethyl 2,2′-(((1S,3′R,6′R,7′S,8′E,12′R)-6-chloro-12′-methyl-13′,13′-dioxido-15′-oxo-3,4-dihydro-2H-spiro[naphthalene-1,22′-[20]oxa[13]thia[1,14]diazatetracyclo[14.7.2.0^3,6.0^19,24]pentacosa [8,16,18,24]tetraen]-7′-yl)imino)diacetate-trifluoroacetic Acid] | 0.647 nM | 104 nM | 
3 | Cc1nc(CN(Cc2noc(C)n2)[C@H]2/C=C/CC[C@@H](C)S(=O)(=O)NC(=O)c3ccc4c(c3)N(C[C@@H]3CC[C@H]32)C[C@@]2(CCCc3cc(Cl)ccc32)CO4)no1 [Example 602, (1S,3′R,6′R,7′S,8′E,12′R)-7′-(bis((5-methyl-1,2,4-oxadiazol-3-yl)methyl)amino)-6-chloro-12′-methyl-3,4-dihydro-2H,15′H-spiro[naphthalene-1,22′-[20]oxa[13]thia[1,14]diazatetracyclo[14.7.2.0^3,6.0^19,24]pentacosa [8,16,18,24]tetraen]-15′-one 13′,13′-dioxide] | 1.74 nM | 727 nM | 
4 | Cc1nc(CO[C@H]2/C=C/CC[C@@H](C)S(=O)(=O)NC(=O)c3ccc4c(c3)N(C[C@@H]3CC[C@H]32)C[C@@]2(CCCc3cc(Cl)ccc32)CO4)no1 [Example 603, (1S,3′R,6′R,7′S,8′E,12′R)-6-chloro-12′-methyl-7′-((5-methyl-1,2,4-oxadiazol-3-yl)methoxy)-3,4-dihydro-2H,15′H-spiro[naphthalene-1,22′-[20]oxa[13]thia[1,14]diazatetracyclo[14.7.2.0^3,6.0^19,24]pentacosa [8,16,18,24]tetraen]-15′-one 13′,13′-dioxide] | 0.667 nM | 438 nM | 
5 | CC[C@@H]1CC/C=C/[C@H](OC(N)=O)[C@@H]2CC[C@H]2CN2C[C@@]3(CCCc4cc(Cl)ccc43)COc3ccc(cc32)C(=O)NS1(=O)=O [Example 610, (1S,3′R,6′R,7′S,8′E,12′R)-6-chloro-12′-ethyl-13′,13′-dioxido-15′-oxo-3,4-dihydro-2H-spiro[naphthalene-1,22′-[20]oxa[13]thia[1,14]diazatetracyclo[14.7.2.0^3,6.0^19,24]pentacosa [8,16,18,24]tetraen]-7′-yl carbamate] | 0.923 nM | 1140 nM | 
6 | COC(=O)CC[C@@H]1CC/C=C/[C@H](O)[C@@H]2CC[C@H]2CN2C[C@@]3(CCCc4cc(Cl)ccc43)COc3ccc(cc32)C(=O)NS1(=O)=O [Example 616] | 0.178 nM |  | 482 nM
7 | COC(=O)C[C@H]1CC/C=C/[C@H](O)[C@@H]2CC[C@H]2CN2C[C@@]3(CCCc4cc(Cl)ccc43)COc3ccc(cc32)C(=O)NS1(=O)=O [Example 620] | 0.71 nM |  | 4080 nM
8 | CCOC(=O)CO[C@H]1/C=C/CC[C@@H](CC(=O)OC)S(=O)(=O)NC(=O)c2ccc3c(c2)N(C[C@@H]2CC[C@H]21)C[C@@]1(CCCc2cc(Cl)ccc21)CO3 [Example 623] | 0.642 nM |  | 483 nM
9 | COC(=O)C[C@@H]1CC/C=C/[C@H](OC)[C@@H]2CC[C@H]2CN2C[C@@]3(CCCc4cc(Cl)ccc43)COc3ccc(cc32)C(=O)NS1(=O)=O [Example 624] | 0.338 nM |  | 455 nM
10 | COC(=O)CC1C(C)CC=CC(O)C2CCC2CN2CC3(CCCc4cc(Cl)ccc43)COc3ccc(cc32)C(=O)NS1(=O)=O (centres unmarked) [Example 647] | 0.188 nM | 131 nM | 
11 | CC[C@@H]1CC/C=C/[C@H](O)[C@@H]2CC[C@H]2CN2C[C@@]3(CCCc4cc(Cl)ccc43)COc3cc(F)c(cc32)C(=O)NS1(=O)=O [Example 655, (1S,3′R,6′R,7′S,8′E,12′R)-6-chloro-12′-ethyl-17′-fluoro-7′-hydroxy-3,4-dihydro-2H,15′H-spiro[naphthalene-1,22′-[20]oxa[13]thia[1,14]diazatetracyclo[14.7.2.0^3,6.0^19,24]pentacosa [8,16,18,24]tetraen]-15′-one 13′,13′-dioxide] | 0.884 nM | 947 nM | 
12 | CC[C@@H]1CC/C=C/[C@H](O)[C@@H]2CC[C@H]2CN2C[C@@]3(CCCc4cc(Cl)ccc43)COc3cc(Cl)c(cc32)C(=O)NS1(=O)=O [Example 657, (1S,3′R,6′R,7′S,8′E,12′R)-6,17′-dichloro-12′-ethyl-7′-hydroxy-3,4-dihydro-2H,15′H-spiro[naphthalene-1,22′-[20]oxa[13]thia[1,14]diazatetracyclo[14.7.2.0^3,6.0^19,24]pentacosa[8,16,18,24]tetraen]-15′-one 13′,13′-dioxide] | 11.2 nM | 24700 nM | 
13 | O=C1NS(=O)(=O)NCCC/C=C/[C@H](O)[C@@H]2CC[C@H]2CN2C[C@@]3(CCCc4cc(Cl)ccc43)COc3ccc1cc32 [Example 660, (1S,3′R,6′R,7′S,8′E)-6-chloro-7′-hydroxy-3,4-dihydro-2H,16′H-spiro[naphthalene-1,23′-[21]oxa[14]thia[1,13,15]triazatetracyclo[15.7.2.0^3,6.0^20,25]hexacosa[8,17,19,25]tetraen]-16′-one 14′,14′-dioxide] | 0.376 nM | 416 nM | 
14 | COCCN1CCC/C=C/[C@H](O)[C@@H]2CC[C@H]2CN2C[C@@]3(CCCc4cc(Cl)ccc43)COc3ccc(cc32)C(=O)NS1(=O)=O [Example 665, (1S,3′R,6′R,7′S,8′E)-6-chloro-7′-hydroxy-13′-(2-methoxyethyl)-3,4-dihydro-2H,16′H-spiro[naphthalene-1,23′-[21]oxa[14]thia[1,13,15]triazatetracyclo[15.7.2.0^3,6.0^20,25]hexacosa[8,17,19,25]tetraen]-16′-one 14′,14′-dioxide] | 2.89 nM | 1320 nM | 
15 | COC[C@H](O)CN1[C@@H](C)C/C=C/[C@H](O)[C@@H]2CC[C@H]2CN2C[C@@]3(CCCc4cc(Cl)ccc43)COc3ccc(cc32)C(=O)NS1(=O)=O [Example 687, (1S,3′R,6′R,7′S,8′E,11′S)-6-chloro-7′-hydroxy-12′-((2R)-2-hydroxy-3-methoxypropyl)-11′-methyl-3,4-dihydro-2H,15′H-spiro[naphthalene-1,22′-[20]oxa[13]thia[1,12,14]triazatetracyclo[14.7.2.0^3,6.0^19,24]pentacosa[8,16,18,24]tetraen]-15′-one 13′,13′-dioxide] | 0.207 nM | 148 nM | 
16 | CC[C@@H]1CC/C=C/[C@H](OC)[C@@H]2CC[C@H]2CN2C[C@@]3(CCCc4cc(Cl)ccc43)COc3cc(Cl)c(cc32)C(=O)NS1(=O)=O [Example 688, (1S,3′R,6′R,7′S,8′E,12′R)-6,17′-dichloro-12′-ethyl-7′-methoxy-3,4-dihydro-2H,15′H-spiro[naphthalene-1,22′-[20]oxa[13]thia[1,14]diazatetracyclo[14.7.2.0^3,6.0^19,24]pentacosa [8,16,18,24]tetraen]-15′-one 13′,13′-dioxide] | 14.1 nM | 13600 nM | 
